The values that follow come from PubChem BioAssay (NCI).

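Step 1: Grow cells in 96-well plates. Step 2: Expose to compound for 48 hours at 5 concentrations. Step 3: Interpolate endpoints linearly; if unreached, use highest concentration. Abbreviation: GI50, concentration required for 50% inhibition of growth. TGI marks complete inhibition of growth.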

Common to all, as to experiment: NCI-60 cell line screen, 48 h
The test system of assay [1] is K-562 leukemia.
The test system of assay [2] is IGROV1 ovarian.
Assay [3] concerns NCI-H460 lung.
Assay [4] relates to M14 melanoma.
Assay [5] has as its system CCRF-CEM leukemia.
The test system of assay [6] is HCT-116 colon.
The subject of assay [7] is SNB-75 CNS.
The test system of assay [8] is EKVX NSCLC.
The test system of assay [9] is A549 NSCLC.
Assay [10] has as its system UO-31 renal.

Take `CS(=O)(=O)Nc1ccc(Nc2c3ccccc3nc3ccccc23)cc1`: the TGI in assay [1] was 21.2 µM; in [2] it was 18.9 µM; in assay [3], 6.95 µM; in assay [4], 17.5 µM; in [5] it was 26.4 µM; in assay [6], 15 µM. The TGI in assay [7] is 19.1 µM; in [8], 29.6 µM; in assay [9], 10.1 µM; in [10], 12.5 µM.
Take `O=C(NC1=NC2C=CC([N+](=O)[O-])=CC2S1)C(=O)Nn1c(=S)[nH]c2ccccc2c1=O` (stereo not given): the TGI in [1], in assay [2], in assay [3], in assay [4], in assay [5] and in assay [6] was > 100 µM each time. The TGI in assay [7], in assay [8], in assay [9] and in assay [10] was > 100 µM in each case.
`O=C1C(=O)C(Br)(Br)C(Br)=C1Br`: the TGI in assay [1] is 41.3 µM; in assay [2], > 100 µM; in assay [3] it was > 100 µM; in assay [4] it was 32.4 µM; in assay [5], 57.1 µM; in assay [7] it was 27.7 µM. The TGI in assay [8] is 54.8 µM; in assay [9], > 100 µM; in assay [10], 33.5 µM.
For `CCOC(=O)c1c(C(F)(F)F)n([O-])c2ccc(OC)cc2[n+]1=O`, the GI50 in assay [1] is 3.76 µM; in assay [2], 4.69 µM; in assay [3], 3.8 µM; in assay [4], 3.75 µM; in assay [5], 4.3 µM; in assay [6], 4.13 µM. In addition, the GI50 in assay [7] is 3.55 µM; in assay [8], 3.67 µM; in assay [9] it was 8.57 µM; in assay [10], 6.68 µM. The TGI in assay [1] is 24.9 µM; in assay [2], 26.5 µM; in [3], 15.7 µM; in assay [4] it was 24.6 µM; in [5] it was 41.7 µM; in assay [6] it was 18.3 µM. Also, the TGI was 39.8 µM in [7], 60.5 µM in [8], > 100 µM in [9] and > 100 µM in assay [10].
In the case of `C[C@@]12CCC(=O)C=C1CC[C@H]1C2=CC[C@]2(C)C1CC[C@@]2(C)O` (stereo not given in full), the TGI in [1], in assay [2], in assay [3], in assay [4], in assay [5] and in assay [6] was > 100 µM in each case. In addition, the TGI in assay [7], in assay [8], in assay [9] and in assay [10] was > 100 µM in each case.
Take `N#Cc1ccnc(N2C(=O)CC[C@H]2C(=O)N(c2cncc(F)c2)[C@H](C(=O)NC2CC(F)(F)C2)c2ccccc2Cl)c1`: the GI50 was > 100 µM in assay [1]; 44.5 µM in [2]; 73.3 µM in [3]; 49.1 µM in assay [4]; > 100 µM in assay [5]; 29.9 µM in [6]. For the same compound, the GI50 is 16.7 µM in assay [7], 99.2 µM in assay [8], 65.8 µM in assay [9] and 18.3 µM in assay [10]. The TGI in assay [1], in assay [2], in assay [3], in assay [4], in assay [5] and in assay [6] was > 100 µM throughout. The TGI in assay [7], in assay [8], in assay [9] and in assay [10] was > 100 µM each time.
Regarding `CC1=C(C(=O)Nc2ccc(Cl)c(Cl)c2)C(c2ccco2)C(C(=O)Nc2ccc(Cl)c(Cl)c2)=C(C)N1`, the TGI in assay [1] came to 29 µM; in assay [2] it was 32.6 µM; in [3] it was 31.6 µM; in [4], 18.4 µM; in [5], 27.7 µM; in assay [6] it was 21.5 µM. Also, the TGI in [7] was determined as 31.5 µM; in assay [8], 29.5 µM; in [9], 28.1 µM; in assay [10], 21.7 µM.
As for `CC1C=CC(=O)C(n2cc(F)c(=O)[nH]c2=O)O1` (stereo not given), the TGI in assay [1] is 79.8 µM; in assay [2], 45.2 µM; in [3] it was 54.2 µM; in assay [4] it was 36.7 µM; in [5] it was 34.4 µM; in assay [6] it was 29.1 µM. Besides, the TGI in [7] stood at 38.2 µM; in assay [8], 50.9 µM; in assay [9], 70.8 µM; in assay [10], 30 µM.
For `COc1ccc2c(c1)CCC1C2CC[C@]2(C)/C(=N/OC(=O)Cc3ccccc3)CCC12` (stereo not given in full), the GI50 in assay [2] was 14.7 µM; in assay [3], 14.6 µM; in [4], 16.8 µM; in assay [5] it was 13.6 µM; in assay [6], 13.4 µM; in assay [7], 19.9 µM. Besides, the GI50 is 19.4 µM in assay [8], 19.3 µM in assay [9] and 19.2 µM in [10]. Further, the TGI in assay [2] amounted to 29.8 µM; in assay [3], 30.4 µM; in [4], 32.9 µM; in [5] it was 49.9 µM; in assay [6], 26.2 µM; in assay [7], 47.7 µM. For the same compound, the TGI in assay [8] stood at 44.1 µM; in [9], 42.7 µM; in assay [10] it was 43.8 µM.
For `NCc1nnn(Cc2ccccc2)c1N`, the TGI in [1], in assay [2], in assay [3], in assay [4], in [5] and in assay [6] was > 100 µM throughout. Besides, the TGI in [7], in assay [8] and in assay [9] was > 100 µM each time.
For the compound `COC1=CC(c2ccc[nH]2)=N/C1=C\c1[nH]c(C)c(C(=O)CCCCC(=O)Nc2ccccc2)c1C`, the GI50 in assay [1] was 1.43 µM; in [2], 0.811 µM; in assay [3] it was 1.25 µM; in assay [4], 2.01 µM; in assay [5], 0.261 µM; in assay [6], 1.64 µM. Moreover, the results for the GI50 in assay [7], in [8] and in assay [10] were 2.8 µM, 2.64 µM and 1.43 µM, respectively. Also, the TGI in [1] came to 2.74 µM; in assay [2] it was 2.07 µM; in assay [3], 2.63 µM; in assay [4], 4.51 µM; in assay [5] it was 1.43 µM; in assay [6] it was 3 µM. In addition, the TGI in [7] was 11.4 µM; in [8], 19.8 µM; in [10], 3.12 µM.
Turning to `C=C(C)[C@@H]1CC[C@]2(C)[C@H](CC[C@@H]3[C@H]4[C@H]5OC[C@@]4(CCC5(C)C)CC[C@]32C)[C@@]1(C)CCCN`, the GI50 is 2.25 µM in assay [1]; 1.8 µM in assay [2]; 1.8 µM in assay [3]; 1.79 µM in [4]; 2.44 µM in assay [5]; 1.53 µM in assay [7]. Also, the GI50 in [8] was 1.81 µM; in [9], 1.69 µM; in assay [10], 1.42 µM. Also, the TGI in assay [1] was 9.01 µM; in assay [2], 3.36 µM; in assay [3], 3.39 µM; in assay [4] it was 3.58 µM; in assay [5], > 100 µM; in assay [7], 3.11 µM. Also, the TGI in assay [8] is 3.31 µM; in assay [9], 3.37 µM; in assay [10], 2.76 µM.
Turning to `O=C(/C=C\c1ccc(Cl)cc1Cl)c1cccs1`, the TGI in assay [1] is > 100 µM; in [3], 89.5 µM; in assay [4] it was 35.1 µM; in [5], 73.6 µM; in [6], 23.5 µM; in assay [7] it was 42.2 µM. The values for the TGI in assay [8], in assay [9] and in assay [10] were 34.3 µM, > 100 µM and 25 µM, respectively.
`Cc1ccccc1CN1CC=c2ccccc2=N1`: the TGI in assay [1], in assay [2], in [3], in assay [4], in assay [5] and in assay [7] was > 100 µM in each case. The TGI in assay [8], in assay [9] and in assay [10] was > 100 µM each time.
In the case of `CCOC(=O)c1sc(Nc2ccc(Cl)cc2)nc1C`, the GI50 in [1] is 2.57 µM; in assay [2], 1.52 µM; in assay [3] it was 2.34 µM; in [4], 1.56 µM; in assay [5], 2.64 µM; in assay [7], 1.43 µM. The figures for the GI50 in assay [8], in assay [9] and in assay [10] were 0.969 µM, 2.17 µM and 1.15 µM, respectively. Also, the TGI is 9.07 µM in assay [1]; 4.26 µM in assay [2]; 6.31 µM in assay [3]; 3.32 µM in [4]; 9.37 µM in assay [5]; 4.24 µM in assay [7]. In addition, the TGI in [8] was 5.52 µM; in assay [9], 5.45 µM; in assay [10], 2.5 µM.
For `NCCNC(=S)S`, the TGI was 95.1 µM in [1]; > 100 µM in assay [2]; > 100 µM in [4]; 90.6 µM in assay [5]; > 100 µM in assay [6]; > 100 µM in assay [7]. The TGI in assay [8], in assay [9] and in assay [10] was > 100 µM throughout.
Consider `O=C1CCC2(CC1)SCCCS2`, for which the TGI in assay [1], in [2], in assay [3], in [4], in assay [5] and in assay [7] was > 100 µM each time. The TGI in assay [8], in assay [9] and in assay [10] was > 100 µM in each case.
Take `CC(C)OP(=O)(OC(C)C)C(=Nc1ccccc1)NNc1ccc([N+](=O)[O-])cc1`: the TGI in [1] is > 100 µM; in assay [3], > 100 µM; in [4] it was 41.4 µM; in assay [5], 56.9 µM; in assay [6], 31.2 µM; in assay [7], > 100 µM. Moreover, the TGI is > 100 µM in [8], 88.5 µM in assay [9] and > 100 µM in assay [10].
Consider `Nc1c(-c2ccc(Cl)cc2Cl)[n+]([O-])c2ccccc2[n+]1[O-]`, for which the TGI in [1], in [2], in [3], in [4], in [5] and in assay [7] was > 100 µM each time. The TGI in assay [8], in [9] and in assay [10] was > 100 µM in each case.
Take `c1ccc(CN(Cn2cccn2)Cn2cccn2)nc1`: the TGI in [1], in assay [3], in [4], in assay [5], in [6] and in assay [7] was > 100 µM each time. Moreover, the TGI in assay [8], in assay [9] and in assay [10] was > 100 µM each time.
For the compound `COc1ccc(C2=NN(C(C)=O)C(c3cn(-c4ccccc4)nc3-c3ccc(Cl)cc3)C2)cc1` (stereo not given), the GI50 in assay [1] is > 100 µM; in [2], > 100 µM; in [5], > 100 µM; in assay [6], > 100 µM; in [7], 9.08 µM; in assay [8], > 100 µM. Further, the GI50 in [10] is > 100 µM. The TGI in assay [1], in [2], in assay [5], in assay [6], in assay [7] and in [8] was > 100 µM each time. Also, the TGI in assay [10] is > 100 µM.
Take `Cc1cc(Cl)ccc1N=C1NC(=O)C(CC(=O)Nc2ccc(Cl)cc2Cl)S1` (stereo not given): the TGI in [1], in [2], in [3], in assay [4], in [5] and in assay [7] was > 100 µM in each case. For the same compound, the TGI in [8], in assay [9] and in [10] was > 100 µM each time.
As to `N#CCCN(c1ccc(-c2nnc(NC(=O)CNNC(=O)CC(=O)Nc3ccccc3)s2)cc1)S(=O)(=O)c1ccccc1`, the TGI in assay [1], in [2], in assay [3], in assay [5], in assay [6] and in assay [7] was > 100 µM throughout. Besides, the TGI in [8], in assay [9] and in assay [10] was > 100 µM throughout.
